# PubChem BioAssay AID330 (DTP/NCI, 2004)
# Inconclusive results and toxic doses are left out.
# Test system: P388 leukemia ip, CD2F1 mice, survival T/C
# Assay: NCI In Vivo Anticancer Drug Screen. Data for tumor model P388 Leukemia (intraperitoneal) in CD2F1 (CDF1) mice
# Conditions: endpoint: median survival time, higher = longer survival
# In short: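 Mice carrying the transplanted tumor received test compound or vehicle. Survival was recorded in each group, and the value is the treated-group measurement divided by that of the vehicle-treated control group.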
# [1] = dose: 50.0 mg/kg/injection, schedule: Q01DX005 (ip), vehicle: saline with Tween-80
# [2] = dose: 100.0 mg/kg/injection, schedule: Q01DX005 (ip), vehicle: saline with Tween-80
# [3] = dose: 200.0 mg/kg/injection, schedule: Q01DX005 (ip), vehicle: saline with Tween-80
# [4] = dose: 50.0 mg/kg/injection, schedule: Q01DX009 (ip), vehicle: saline with Tween-80
# [5] = dose: 100.0 mg/kg/injection, schedule: Q01DX009 (ip), vehicle: saline with Tween-80
# [6] = dose: 200.0 mg/kg/injection, schedule: Q01DX009 (ip), vehicle: saline with Tween-80
smiles,measurement,setting,value
O=C(NN1CCOCC1)C(F)(F)F,T/C,"dose: 100.0 mg/kg/injection, schedule: Q01DX001 (ip), vehicle: saline",100 % of control
same,T/C,"dose: 200.0 mg/kg/injection, schedule: Q01DX001 (ip), vehicle: saline",99 % of control
same,T/C,"dose: 400.0 mg/kg/injection, schedule: Q01DX001 (ip), vehicle: saline",99 % of control
CCCCc1c(C#N)c(=O)n2c(N)c(C#N)cnc2c1SC,T/C,"dose: 60.0 mg/kg/injection, schedule: Q01DX005 (ip), vehicle: saline with Tween-80",93 % of control
same,T/C,"dose: 120.0 mg/kg/injection, schedule: Q01DX005 (ip), vehicle: saline with Tween-80",93 % of control
same,T/C,"dose: 240.0 mg/kg/injection, schedule: Q01DX005 (ip), vehicle: saline with Tween-80",87 % of control
C/C(N)=N/OC(c1ccccc1)(c1ccccc1)c1ccccc1,T/C,"dose: 50.0 mg/kg/injection, schedule: Q01DX005 (ip), vehicle: Klucel + Tween-80",94 % of control
same,T/C,"dose: 100.0 mg/kg/injection, schedule: Q01DX005 (ip), vehicle: Klucel + Tween-80",90 % of control
same,T/C,"dose: 200.0 mg/kg/injection, schedule: Q01DX005 (ip), vehicle: Klucel + Tween-80",93 % of control
OCN1CCC23c4c5ccc(O)c4OC2C(O)C=CC3C1C5 (centres undefined),T/C,[1],100 % of control
same,T/C,[2],100 % of control
same,T/C,[3],100 % of control
CCN(CC)CCNc1ccc(C)c2sc3c(N)cccc3c(=O)c12,T/C,[4],100 % of control
same,T/C,[5],113 % of control
same,T/C,[6],123 % of control
CC(=O)CS(=O)(=O)c1ccc(NC(C)=O)cc1,T/C,"dose: 50.0 mg/kg/injection, schedule: Q01DX009 (ip), vehicle: suspension in saline",105 % of control
same,T/C,"dose: 100.0 mg/kg/injection, schedule: Q01DX009 (ip), vehicle: suspension in saline",94 % of control
same,T/C,"dose: 200.0 mg/kg/injection, schedule: Q01DX009 (ip), vehicle: suspension in saline",101 % of control
N#Cc1c(NC(=O)Nc2cc(C(F)(F)F)ccc2Cl)sc(=S)c2c1CCCC2,T/C,[1],100 % of control
same,T/C,[2],103 % of control
NCCCNC(=O)c1ccccc1N,T/C,"dose: 50.0 mg/kg/injection, schedule: Q01DX005 (ip), vehicle: Klucel (hydroxypropylcellulose) (HPC)",100 % of control
same,T/C,"dose: 100.0 mg/kg/injection, schedule: Q01DX005 (ip), vehicle: Klucel (hydroxypropylcellulose) (HPC)",100 % of control
same,T/C,"dose: 200.0 mg/kg/injection, schedule: Q01DX005 (ip), vehicle: Klucel (hydroxypropylcellulose) (HPC)",100 % of control
CC(C)(C)c1cc2c3c(c1)C(C(F)(F)F)(C(F)(F)F)OS3(O)OC2(C(F)(F)F)C(F)(F)F,T/C,"dose: 12.5 mg/kg/injection, schedule: Q01DX005 (ip), vehicle: suspension in saline",103 % of control
same,T/C,"dose: 25.0 mg/kg/injection, schedule: Q01DX005 (ip), vehicle: suspension in saline",108 % of control
CC1CC1(C1C=CCCC1)C1C=CCCC1 (centres undefined),T/C,[1],100 % of control
same,T/C,[2],100 % of control
same,T/C,[3],108 % of control
NC(=O)c1[nH]cnc1/N=N/N(CCCl)Cc1ccccc1,T/C,"dose: 44.0 mg/kg/injection, schedule: Q01DX009 (ip), vehicle: Klucel (hydroxypropylcellulose) (HPC)",122 % of control
same,T/C,"dose: 100.0 mg/kg/injection, schedule: Q01DX009 (ip), vehicle: Klucel (hydroxypropylcellulose) (HPC)",196 % of control
same,T/C,"dose: 150.0 mg/kg/injection, schedule: Q01DX009 (ip), vehicle: Klucel (hydroxypropylcellulose) (HPC)",196 % of control
same,T/C,"dose: 200.0 mg/kg/injection, schedule: Q04DX003 (ip), vehicle: Klucel (hydroxypropylcellulose) (HPC)",182 % of control
same,T/C,"dose: 400.0 mg/kg/injection, schedule: Q04DX003 (ip), vehicle: Klucel (hydroxypropylcellulose) (HPC)",256 % of control
OCC(O)C1OC(c2ccco2)OC(CO)C1O (centres undefined),T/C,[1],102 % of control
same,T/C,[2],105 % of control
same,T/C,[3],105 % of control
Fc1ccc2[nH]c3ncccc3c2c1,T/C,[1],106 % of control
same,T/C,[2],105 % of control
same,T/C,[3],100 % of control
Cc1ccc2cccc(OC(=O)c3cccnc3Oc3ccccc3)c2n1,T/C,[4],91 % of control
same,T/C,[5],90 % of control
same,T/C,[6],90 % of control
Cc1nc2ccccc2c(=O)n1/N=C/c1ccccc1Cl,T/C,[1],100 % of control
same,T/C,[2],99 % of control
same,T/C,[3],100 % of control
O=C1C=CC(O)C1(O)CO (centres undefined),T/C,"dose: 2.5 mg/kg/injection, schedule: Q01DX009 (ip), vehicle: saline + alcohol",98 % of control
same,T/C,"dose: 5.0 mg/kg/injection, schedule: Q01DX009 (ip), vehicle: saline + alcohol",100 % of control
same,T/C,"dose: 10.0 mg/kg/injection, schedule: Q01DX009 (ip), vehicle: saline + alcohol",105 % of control
same,T/C,"dose: 20.0 mg/kg/injection, schedule: Q01DX009 (ip), vehicle: saline + alcohol",101 % of control
